# Laboratory results published in patent publication US11365195B2, “Atypical inhibitors of monoamine transporters; method of making; and use thereof” (THE UNITED STATES OF AMERICA, AS REPRESENTED BY THE …, priority 2017, dated 2022).
# Like-named read-outs stand apart in the source and are kept apart here.
# Experiments:
# DAT = biological target: T1, DAT (Rattus norvegicus, UniProt P23977); assay: DAT radioligand binding in rat striatum ([3H]-WIN35,428 competition); settings: for SERT/DAT: ratio of SERT Ki to DAT Ki
# T1 construct: 100 μl of tissue preparation (1.5 mg of brain striatum membranes per well); tissue Bioreclamation IVT (Hicksville, N.Y.); host or cells: male Sprague-Dawley rat brain striatum membranes
# Protocol: (§1) Binding affinities of the analogue compounds were evaluated at the DAT and SERT in rat brain membranes, and sigma-1 in guinea pig brain membranes according to the following protocols.
# DAT Radioligand Binding in Rat Striatum
# The tissue was centrifuged at 20,000 rpm for 10 min at 4° C. The pellet was suspended in cold buffer and centrifuged again using the same settings. The resulting pellet was resuspended in cold buffer at a concentration of 15 mg/mL OWW (original wet weight). On test day, all test compounds were freshly dissolved in 30% DMSO and 70% H2O to a stock concentration of 1 mM or 100 μM When necessary, to assist the solubilization of compounds, 10 μl of glacial acetic acid was added along with the DMSO (in place of 10 μl final H2O volume). Each test compound was then diluted into 10 half-log serial dilutions using 30% DMSO vehicle. […] Non-specific binding was determined using […] Indatraline and total binding was determined with 30% DMSO vehicle. The reaction was started with the addition of the tissue. […] The filters were washed 3 times with 3 mL (3×1 mL/well) of ice cold binding buffer. […] These analyses were performed using GraphPad Prism version 6.00 for Macintosh (GraphPad Software, San Diego, Calif.).
# SERT = biological target: T2, SERT (Rattus norvegicus, UniProt P31652); assay: SERT radioligand binding in rat midbrain ([3H]-Citalopram competition); settings: rat midbrain/brain stem membranes, [3H]-Citalopram, mean ± SEM; read-out: SERT (rat mid-brain-stem) Ki ± SEM
# T2 construct: 100 μl of tissue preparation (2 mg of brain stem membranes per well); tissue Bioreclamation IVT (Hicksville, N.Y.); host or cells: male Sprague-Dawley rat brain stem membranes
# Protocol: as §1
# SERT Radioligand Binding in Rat Midbrain
# The tissue was centrifuged at 20,000 rpm for 10 min at 4° C. The pellet was suspended in cold buffer and centrifuged again using the same settings. The resulting pellet was resuspended in cold buffer at a concentration of 20 mg/mL OWW (original wet weight). On test day, all test compounds were freshly dissolved in 30% DMSO and 70% H2O to a stock concentration of 1 mM or 100 μM. When necessary, to assist the solubilization of compounds, 10 μl of glacial acetic acid was added along with the DMSO (in place of 10 μl final H2O volume). Each test compound was then diluted into 10 half-log serial dilutions using 30% DMSO vehicle. […] Non-specific binding was determined using […] Fluoxetine HCl and total binding was determined with 30% DMSO vehicle. The reaction was started with the addition of the tissue. All compound dilutions were tested in triplicate and the reaction incubated for 60 min at room temperature. The reaction was terminated by filtration through Perkin Elmer Uni-Filter-96 GF/B, presoaked for 60 min in 0.3% polyethylenimine, using a Brandel 96-Well Plates Harvester Manifold (Brandel Instruments, Gaithersburg, Md.). The filters were washed 3 times with 3 mL (3×1 mL/well) of ice cold binding buffer. […] These analyses were performed using GraphPad Prism version 6.00 for Macintosh (GraphPad Software, San Diego, Calif.).
# σ1R = biological target: T3, σ1R (Cavia porcellus, UniProt Q60492); assay: σ1R radioligand binding in guinea pig cortex ([3H]-(+)-Pentazocine competition); settings: for σ1/DAT: ratio of σ1 to DAT affinity values; for σ1/SERT: ratio of σ1 to SERT affinity values
# T3 construct: tissue BioReclamation IVT (Hicksville, N.Y.); host or cells: male Hartley guinea pig brain cortex membranes
# Protocol: as §1
# σ1R Radioligand Binding in Guinea Pig Cortex
# Male Hartley guinea pig cortices were dissected from freshly harvested brains (shipped cold in PBS buffer from BioReclamation IVT (Hicksville, N.Y.)) and frozen at −80° C. for future use. […] The supernatant was collected in a clean tube and the pellet re-suspended in 10 ml of cold buffer and centrifuged again (˜1,200 rpm) for 10 min at 4° C. […] The final pellet was suspended in ice-cold binding buffer at 50 mg/ml concentration. […] All test compounds were freshly dissolved in 30% DMSO and 70% H2O to a stock concentration of 1 mM or 100 μM. When necessary, to assist the solubilization of compounds, 10 μl of glacial acetic acid was added along with the DMSO (in place of 10 μl final H2O volume). Each test compound was then diluted into 10 half-log serial dilutions using 30% DMSO as the vehicle. […] Nonspecific binding was determined using either 10 μM PRE084 or 10 μM (+)-Pentazocine and total binding was determined with 30% DMSO vehicle (3% DMSO final concentration). […] The filters were washed 3 times with 3 ml (3×1 ml/well) of ice cold binding buffer.
# [1] = Phase I metabolic stability in rat liver microsomes; format: in vitro ADME; settings: for Phase I in Liver Microsomes, Negative Control: rat liver microsomes lacking NADPH; for Phase I in Liver Microsomes, Rat: with NADPH, 10 μM compound, 0.5 mg/mL microsomes; for stability to Phase I metabolism (in words): rat liver microsomes fortified with NADPH
# Protocol: Methods: Phase I metabolic stability assays were conducted in rat liver microsomes. For phase I metabolism, the reactions were carried out with 100 mM potassium phosphate buffer, pH 7.4, in the presence of NADPH regenerating system (1.3 mM NADPH, 3.3 mM glucose 6-phosphate, 3.3 mM MgCl2, 0.4 U/mL glucose-6-phosphate dehydrogenase, […] sodium citrate). Reactions in triplicate were initiated by addition of the liver microsomes to the incubation mixture (compound final concentration was 10 μM; 0.5 mg/mL microsomes). Compound disappearance was monitored via LC/MS/MS. […] The total run time for each analyte was 5.0 min.
# [2] = rat striatum membranes, [3H]-WIN35,428, mean ± SEM, read-out: DAT (rat striatum) Ki ± SEM
# T2 sequence (P31652 whole entry): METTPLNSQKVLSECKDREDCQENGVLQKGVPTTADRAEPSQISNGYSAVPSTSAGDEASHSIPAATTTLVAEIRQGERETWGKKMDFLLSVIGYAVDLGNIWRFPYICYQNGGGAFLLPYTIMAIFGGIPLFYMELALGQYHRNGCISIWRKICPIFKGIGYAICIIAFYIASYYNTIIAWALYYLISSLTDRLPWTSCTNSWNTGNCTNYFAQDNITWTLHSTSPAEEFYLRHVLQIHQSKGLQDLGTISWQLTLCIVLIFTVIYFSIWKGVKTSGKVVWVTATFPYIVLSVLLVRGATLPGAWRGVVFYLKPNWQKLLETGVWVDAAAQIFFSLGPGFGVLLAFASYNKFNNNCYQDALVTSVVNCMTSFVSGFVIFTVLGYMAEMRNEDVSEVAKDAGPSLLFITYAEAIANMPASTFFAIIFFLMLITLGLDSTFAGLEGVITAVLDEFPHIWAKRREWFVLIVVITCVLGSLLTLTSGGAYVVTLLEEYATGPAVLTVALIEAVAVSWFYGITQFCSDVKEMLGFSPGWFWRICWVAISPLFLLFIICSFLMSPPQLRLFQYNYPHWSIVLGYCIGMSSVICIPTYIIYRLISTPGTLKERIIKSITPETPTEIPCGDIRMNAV
# T3 sequence (Q60492 whole entry): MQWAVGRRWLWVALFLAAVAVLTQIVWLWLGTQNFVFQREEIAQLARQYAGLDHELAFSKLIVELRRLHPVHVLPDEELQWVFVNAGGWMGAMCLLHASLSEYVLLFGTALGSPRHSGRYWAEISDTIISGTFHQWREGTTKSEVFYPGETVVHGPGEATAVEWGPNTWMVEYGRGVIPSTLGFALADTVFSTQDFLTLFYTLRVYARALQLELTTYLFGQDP
# T1 sequence (P23977 whole entry): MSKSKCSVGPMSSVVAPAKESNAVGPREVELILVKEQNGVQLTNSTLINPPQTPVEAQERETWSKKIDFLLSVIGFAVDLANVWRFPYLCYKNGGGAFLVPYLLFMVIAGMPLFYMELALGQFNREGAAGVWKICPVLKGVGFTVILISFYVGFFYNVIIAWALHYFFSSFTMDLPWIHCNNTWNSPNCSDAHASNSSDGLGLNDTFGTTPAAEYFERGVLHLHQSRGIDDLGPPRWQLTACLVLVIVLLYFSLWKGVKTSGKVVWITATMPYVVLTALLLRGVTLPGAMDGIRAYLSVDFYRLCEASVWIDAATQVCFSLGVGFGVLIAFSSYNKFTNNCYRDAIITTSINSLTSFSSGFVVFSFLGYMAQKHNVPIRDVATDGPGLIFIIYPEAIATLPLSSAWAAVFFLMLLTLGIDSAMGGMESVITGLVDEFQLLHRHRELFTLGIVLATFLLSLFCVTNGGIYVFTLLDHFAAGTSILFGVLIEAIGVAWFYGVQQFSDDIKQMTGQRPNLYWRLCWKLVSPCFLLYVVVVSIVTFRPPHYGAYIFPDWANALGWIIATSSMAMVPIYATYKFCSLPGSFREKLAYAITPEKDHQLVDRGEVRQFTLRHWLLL
SMILES,Ki (DAT; [2]) [nM],SERT/DAT (DAT),Ki (SERT) [nM],σ1/DAT (σ1R),σ1/SERT (σ1R),"Phase I in Liver Microsomes, Negative Control ([1]; 0 min) [%]","Phase I in Liver Microsomes, Rat ([1]; 0 min) [%]","Phase I in Liver Microsomes, Rat ([1]; 30 min) [%]","Phase I in Liver Microsomes, Negative Control ([1]; 60 min) [%]","Phase I in Liver Microsomes, Rat ([1]; 60 min) [%]",Ki (DAT) [nM],stability to Phase I metabolism (in words) [1],"Phase I in Liver Microsomes, Negative Control ([1]; 30 min) [%]",Kd (σ1R) [nM]
"Cl.Cl.OC(CNC1CCN(CCSC(c2ccc(F)cc2)c2ccc(F)cc2)CC1)Cc1ccccc1 (stereo not shown) [JBG01-061, 1-((1-(2-((Bis(4-fluorophenyl)methyl)thio)ethyl)piperidin-4-yl)amino)-3-phenylpropan-2-ol]",47.7 ± 2.62,1.39,66.3 ± 2.81,1.84,1.33,100,100,83,109,69,–,–,–,–
"Cl.Cl.Fc1ccc(CN2CCC(NCCSC(c3ccc(F)cc3)c3ccc(F)cc3)CC2)cc1 [JBG01-077, N-(2-((Bis(4-fluorophenyl)methyl)thio)ethyl)-1-(4-fluorobenzyl)piperidin-4-amine]",25.5 ± 6.95,10.86,277 ± 5.94,0.52,0.048,100,100,88,111,70,–,–,–,–
"O=C(c1ccc(F)cc1)N1CCC(NCCSC(c2ccc(F)cc2)c2ccc(F)cc2)CC1 [JBG02-028, (4-((2-((Bis(4-fluorophenyl)methyl)thio)ethyl)amino)piperidin-1-yl)(4-fluorophenyl)methanone]",–,66.99,485 ± 32,4.43,0.066,100,100,40,101,24,7.24 ± 0.78,susceptibility,–,–
"Cl.Cl.[O-][S+](CCNC1CCN(Cc2ccc(F)cc2)CC1)C(c1ccc(F)cc1)c1ccc(F)cc1 (stereo not shown) [JBG02-054, N-(2-((Bis(4-fluorophenyl)methyl)sulfinyl)ethyl)-1-(4-fluorobenzyl)piperidin-4-amine]",50.6 ± 11.2,7.31,370 ± 23.7,0.52,0.072,100,100,100,102,95,–,–,102,–
"Cl.O=C(c1ccc(F)cc1)N1CCC(NCC[S+]([O-])C(c2ccc(F)cc2)c2ccc(F)cc2)CC1 (stereo not shown) [JBG02-056, (4-((2-((Bis(4-fluorophenyl)methyl)sulfinyl)ethyl)amino)piperidin-1-yl)(4-fluorophenyl)methanone]",77.2 ± 4.54,59.84,4620 ± 379,17.10,0.29,100,100,100,91,79,–,–,97,1320 ± 36.5
"[O-][S+](CCNC1CCN(CC(O)Cc2ccccc2)CC1)C(c1ccc(F)cc1)c1ccc(F)cc1 (stereo not shown) [JBG02-057, 1-(4-((2-((Bis(4-fluorophenyl)methyl)sulfinyl)ethyl)amino)piperidin-1-yl)-3-phenylpropan-2-ol]",91.8 ± 21.3,6.48,595 ± 54.1,3.77,0.58,100,100,50,100,22,–,susceptibility,102,346 ± 27.1
"CC(C)(C)C(=O)N1CCC(NCC[S+]([O-])C(c2ccc(F)cc2)c2ccc(F)cc2)CC1 (stereo not shown) [JBG02-072, 1-(4-((2-((Bis(4-fluorophenyl)methyl)sulfinyl)ethyl)amino)piperidin-1-yl)-2,2-dimethylpropan-1-one]",10200 ± 3610,3.14,32000 ± 6760,1.10,–,–,–,–,–,–,–,–,–,–
"CC(C)(C)CN1CCC(NCC[S+]([O-])C(c2ccc(F)cc2)c2ccc(F)cc2)CC1 (stereo not shown) [JBG02-074, N-(2-((Bis(4-fluorophenyl)methyl)sulfinyl)ethyl)-1-neopentylpiperidin-4-amine]",431 ± 28.2,16.22,6990 ± 229,1.26,–,–,–,–,–,–,–,–,–,–
"Fc1ccc(C(SCCNC2CCN(CC3CC3)CC2)c2ccc(F)cc2)cc1 [JBG02-080, N-(2-((bis(4-fluorophenyl)methyl)thio)ethyl)-1-(cyclopropylmethyl)piperidin-4-amine]",407 ± 65,3.93,1600 ± 164,0.66,–,–,–,–,–,–,–,–,–,–
"O=C(C1CC1)N1CCC(NCCSC(c2ccc(F)cc2)c2ccc(F)cc2)CC1 [JBG02-083, (4-((2-((bis(4-fluorophenyl)methyl)thio)ethyl)amino)piperidin-1-yl)(cyclopropyl)methanone]",178 ± 35,5.67,1010 ± 94,0.26,–,–,–,–,–,–,–,–,–,–
"CC(O)CN1[C@H](C)CN(CCSC(c2ccc(F)cc2)c2ccc(F)cc2)C[C@@H]1C (stereo partly drawn) [RDS03-094, 1-((2S,6R)-4-(2-((Bis(4-fluorophenyl)methyl)thio)ethyl)-2,6-dimethylpiperazin-1-yl)propan-2-ol]",–,629.79,14800 ± 2260,0.24,0.00038,100,100,99,109,68,23.5 ± 2.12,moderate stability,106,–
CC(O)CN1CCC2(CCN(CC[S+]([O-])C(c3ccc(F)cc3)c3ccc(F)cc3)CC2)C1 (stereo not shown) [RDS04-014],449 ± 120,1.37,617 ± 54.8,0.14,0.11,–,–,–,–,–,–,–,–,–
